Data set [1] deals with T1, Xanthine dehydrogenase/oxidase (Bos taurus, UniProt P80457). As to the kind of experiment: Inhibition of bovine milk xanthine oxidase using xanthine as substrate. Particulars: read-out: I50; call rule not given here.
Data set [2] has as its target T1, Xanthine dehydrogenase/oxidase. As to the kind of experiment: Mixed-type inhibition of bovine milk xanthine oxidase using xanthine as substrate by Lineweaver-Burk plot analysis.
Data set [3] has the same target. Briefly: Mixed-type inhibition of bovine milk xanthine oxidase using hypoxanthine as substrate by Lineweaver-Burk plot analysis.
Data set [4] shares this target. Briefly: Activity at bovine milk xanthine oxidase assessed as reduction of 2,6-dichlorophenol-indophenol. The following applies: cattle.
For data set [5] the target is unchanged. As to the kind of experiment: Activity at bovine milk xanthine oxidase assessed as reduction of cytochrome c and phenazine methosulfate. The following applies: cattle.
Data set [6] has the same target. As to the kind of experiment: Inhibition of bovine milk xanthine oxidase using xanthine as substrate at 10 times I50 preincubated for 20 mins at 25 degC measured after 10 fold dilution relative to control. The following applies: cattle.
Data set [7] has the same target. As to the kind of experiment: Inhibition of bovine milk xanthine oxidase using xanthine as substrate at 10 times I50 preincubated for 1 hr at 4 degC measured after 10 fold dilution relative to control. Particulars: cattle.
For data set [8] the target is unchanged. Briefly: Non-competitive inhibition of bovine milk xanthine oxidase using xanthine as substrate by Lineweaver-Burk plot analysis.
For data set [9] the target is unchanged. As to the kind of experiment: Non-competitive inhibition of bovine milk xanthine oxidase using hypoxanthine as substrate by Lineweaver-Burk plot analysis.
Data set [10] can be described thus: Dissociation constant, pKa of the compound.
Data set [11] deals with T1, Xanthine dehydrogenase/oxidase. Briefly: Inhibition of bovine milk xanthine oxidase using xanthine as substrate assessed as increase of I50 at pH 6.6 to 7.6. Particulars: cattle.
Data set [12] has the same target. Briefly: Inhibition of bovine milk xanthine oxidase using xanthine as substrate assessed as increase of I50 at pH 7.6 to 7.9. The following applies: cattle.
Data set [13] has the same target. Briefly: Inhibition of bovine milk xanthine oxidase using xanthine as substrate assessed as increase of I50 at pH 6.6 to 7.5. The following applies: cattle.
Data set [14] shares this target. As to the kind of experiment: Inhibition of bovine milk xanthine oxidase using xanthine as substrate assessed as increase of I50 at pH 8.2 to 8.8. Particulars: cattle.
For data set [15] the target is unchanged. As to the kind of experiment: Inhibition of bovine milk xanthine oxidase using xanthine as substrate assessed as increase of I50 at pH 6.6 to 8.2. The following applies: cattle.

T1 sequence (P80457 whole entry): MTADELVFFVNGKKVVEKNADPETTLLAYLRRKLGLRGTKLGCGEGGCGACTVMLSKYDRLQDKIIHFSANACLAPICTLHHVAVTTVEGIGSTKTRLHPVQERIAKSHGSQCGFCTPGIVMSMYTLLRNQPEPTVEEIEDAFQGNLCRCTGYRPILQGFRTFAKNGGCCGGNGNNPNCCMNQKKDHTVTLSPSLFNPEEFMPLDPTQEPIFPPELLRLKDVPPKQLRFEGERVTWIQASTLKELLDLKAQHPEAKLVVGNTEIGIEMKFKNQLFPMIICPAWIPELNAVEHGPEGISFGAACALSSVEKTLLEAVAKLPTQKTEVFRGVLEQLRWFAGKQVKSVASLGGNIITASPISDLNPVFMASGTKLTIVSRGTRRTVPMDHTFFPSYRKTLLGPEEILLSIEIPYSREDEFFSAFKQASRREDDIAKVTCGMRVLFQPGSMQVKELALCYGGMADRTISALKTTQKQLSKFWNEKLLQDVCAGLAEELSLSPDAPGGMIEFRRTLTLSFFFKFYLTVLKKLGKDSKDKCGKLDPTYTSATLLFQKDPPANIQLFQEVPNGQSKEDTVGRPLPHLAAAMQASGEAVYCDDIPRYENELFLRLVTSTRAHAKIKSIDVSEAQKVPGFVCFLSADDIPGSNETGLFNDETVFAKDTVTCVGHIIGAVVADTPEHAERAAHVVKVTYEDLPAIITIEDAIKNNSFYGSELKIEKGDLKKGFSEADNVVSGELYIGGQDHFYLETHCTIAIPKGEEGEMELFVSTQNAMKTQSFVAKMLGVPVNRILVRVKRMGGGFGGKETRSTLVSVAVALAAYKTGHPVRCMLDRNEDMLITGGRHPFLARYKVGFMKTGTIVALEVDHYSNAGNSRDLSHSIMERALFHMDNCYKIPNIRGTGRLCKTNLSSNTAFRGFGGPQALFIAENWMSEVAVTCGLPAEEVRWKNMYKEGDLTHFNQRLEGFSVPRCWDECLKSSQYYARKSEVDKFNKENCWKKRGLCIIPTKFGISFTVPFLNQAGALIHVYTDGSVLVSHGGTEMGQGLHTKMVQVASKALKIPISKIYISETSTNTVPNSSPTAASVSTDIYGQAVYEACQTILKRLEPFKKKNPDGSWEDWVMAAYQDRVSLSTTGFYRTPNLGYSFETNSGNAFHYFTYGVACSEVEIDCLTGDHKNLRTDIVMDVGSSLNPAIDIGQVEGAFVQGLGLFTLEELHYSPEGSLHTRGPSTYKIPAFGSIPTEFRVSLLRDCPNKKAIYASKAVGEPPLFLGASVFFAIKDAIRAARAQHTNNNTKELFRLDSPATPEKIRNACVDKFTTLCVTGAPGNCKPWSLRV

The term Ki denotes the dissociation constant of the complex between target and ligand, obtained from inhibition or displacement. High values mean a looser hold on the target, low ones a stronger hold on the target. In the case of `Cc1ccc(-c2cnn3c(O)cc(O)nc23)cc1`, the IC50 in data set [1] came to 96 nM. Also, the Ki in data set [2] was determined as 17 nM; in data set [3] it was 24 nM. Also, the Activity result in [4] and in data set [5] was “Not Active” each time. The “inhibition (INH)” value in [6] stood at 52%; in data set [7], 55%.
For the compound `Oc1cc(O)n2ncc(-c3cccc4ccccc34)c2n1`, the Ki worked out at 13 nM in [8] and 16 nM in [9]. Besides, in [1], the IC50 was 25 nM. Also, the Activity entry in data set [4] and in data set [5] was “Not Active” each time. Moreover, the entries for the “inhibition (INH)” value in data set [6] and in data set [7] were 45% and 46%, respectively.
Regarding `Oc1cc(O)n2ncc(-c3cccnc3)c2n1`, the Ki came out at 26 nM in data set [8] and 31 nM in data set [9]. Further, the IC50 in [1] was 43 nM. In addition, the Activity entry in [4] and in data set [5] was “Not Active” throughout. The “inhibition (INH)” value in [6] amounted to 53%; in data set [7] it was 50%.
One may read the pKa as the negative logarithm of the acid dissociation constant. Read a high pKa as a weaker acid or stronger base. Turning to `Oc1cc(O)n2nccc2n1`, the Ki turned out to be 5400 nM in data set [8] and 4200 nM in data set [9]. For the same compound, the pKa in data set [10] was found to be 3.7. Moreover, the IC50 in data set [1] worked out at 5000 nM. Also, the “inhibition (INH)” value is reported as “Active” in data set [11], “Active” in data set [12], 49% in data set [6] and 47% in data set [7]. In addition, the Activity entry in data set [4] and in data set [5] was “Not Active” each time.
Regarding `O=[N+]([O-])c1cnn2c(O)cc(O)nc12`, the IC50 in data set [1] was 15000 nM. Besides, the Ki is 37000 nM in data set [2] and 31000 nM in data set [3]. Further, the Activity result in [4] and in data set [5] was “Not Active” in each case. Moreover, the entries for the “inhibition (INH)” value in data set [6] and in data set [7] were 53% and 51%, respectively.
With `O=c1[nH]cnc2nc[nH]c12` [HYPOXANTHINE], in data set [10], the pKa was 8.7.
`CC(=O)Nc1ccc(-c2cnn3c(O)cc(O)nc23)cc1`: in data set [1], the IC50 came to 89 nM. The Ki worked out at 85 nM in [2] and 77 nM in data set [3]. For the same compound, the Activity result in data set [4] and in data set [5] was “Not Active” each time. Moreover, the “inhibition (INH)” value in data set [6] is 48%; in [7], 47%.
Regarding `Oc1cc(O)n2ncc(Cl)c2n1`, the figures for the Ki in data set [8] and in data set [9] were 2000 nM and 1800 nM, respectively. In [1], the IC50 came to 1400 nM. Besides, the Activity entry in data set [4] and in [5] was “Not Active” each time. Also, the “inhibition (INH)” value in data set [6] was found to be 44%; in data set [7] it was 45%.
As to `Oc1ncnc2[nH]ncc12` [ALLOPURINOL], in data set [10], the pKa stood at 9. Further, the “inhibition (INH)” value is reported as “Active” in [13], 100% in data set [6] and 100% in data set [7]. For the same compound, the outcome in [4] and in [5] was Active.
As for `Oc1cc(O)n2ncc(-c3ccc4c(c3)OCO4)c2n1`, the IC50 in [1] is 29 nM. Also, the Ki in data set [2] came out at 23 nM; in [3] it was 18 nM. For the same compound, the Activity result in data set [4] and in [5] was “Not Active” each time. For the same compound, the entries for the “inhibition (INH)” value in data set [6] and in data set [7] were 46% and 49%, respectively.
Regarding `Oc1cc(O)n2ncc(-c3ccccc3)c2n1`, the “inhibition (INH)” value is listed as “Active” in data set [14], 49% in [6], “Active” in data set [15] and 47% in [7]. Also, the values for the Ki in data set [8] and in data set [9] were 53 nM and 60 nM, respectively. Besides, the pKa in data set [10] worked out at 3.8. In addition, the IC50 in data set [1] amounted to 38 nM. For the same compound, the Activity result in data set [4] and in data set [5] was “Not Active” each time.
For the compound `Oc1cc(O)n2ncc(-c3ccc(Br)cc3)c2n1`, the “inhibition (INH)” value is reported as “Active” in data set [14], 53% in data set [6], “Active” in data set [15] and 52% in data set [7]. Further, in data set [10], the pKa is 3.8. Further, in data set [1], the IC50 was 33 nM. Also, the Ki was determined as 26 nM in data set [2] and 23 nM in data set [3]. Besides, the Activity result in data set [4] and in [5] was “Not Active” throughout.
`Oc1cc(O)n2ncc(Br)c2n1`: the Ki in data set [8] was 1500 nM; in data set [9], 1200 nM. Also, the IC50 in [1] came to 1200 nM. The Activity entry in [4] and in data set [5] was “Not Active” in each case. Also, the entries for the “inhibition (INH)” value in data set [6] and in [7] were 52% and 50%, respectively.
`O=c1[nH]c(=O)c2[nH]cnc2[nH]1` [XANTHINE]: in [10], the pKa stood at 7.6. Also, the outcome in data set [4] and in data set [5] was Active.
In the case of `Oc1cc(O)n2ncc(-c3ccc(Cl)cc3)c2n1`, the IC50 in data set [1] came out at 43 nM. Besides, the Ki in data set [2] turned out to be 23 nM; in [3], 19 nM. Besides, the Activity entry in [4] and in data set [5] was “Not Active” in each case. For the same compound, the “inhibition (INH)” value in data set [6] is on record as 50%; in data set [7], 53%.
Take `Cc1cccc(-c2cnn3c(O)cc(O)nc23)c1`: the IC50 in data set [1] came to 25 nM. For the same compound, the Ki in data set [2] turned out to be 20 nM; in data set [3], 19 nM. In addition, the Activity result in data set [4] and in data set [5] was “Not Active” in each case. In addition, the “inhibition (INH)” value in data set [6] amounted to 48%; in data set [7] it was 50%.

The values above are taken from ChEMBL document CHEMBL3272185, “Synthesis and enzymic activity of some novel xanthine oxidase inhibitors. 3-Substituted 5,7-dihydroxypyrazolo(1,5-alpha)pyrimidines” (J Med Chem, 1976).
